The source of these data is ChEMBL document CHEMBL1122452, “Mitomycin C analogues with secondary amines at position 7” (J Med Chem, 1983).

Data set [1] relates to P388. Briefly: Optimal dose required for antitumor activity against P-388 murine leukemia cells in mice. The format is functional, Mus musculus.
Data set [2] has as its system B16. Nature of the data set: Median survival time (% T/C) after ip administration of a dose of 3 mg/kg/day in B-16 melanoma in mice. It counts as functional, Mus musculus. The conditions noted are these: route intraperitoneal.
The subject of data set [3] is B16. Nature of the data set: Tumor free survivors on 62nd day after ip administration of a dose of 4 mg/kg/day in B-16 melanoma in mice; out of 10. It counts as functional, Mus musculus. The conditions noted are these: route intraperitoneal.
The test system of data set [4] is B16. Nature of the data set: Tumor free survivors on 62nd day after ip administration of a dose of 1 mg/kg/day in B-16 melanoma in mice. It counts as functional, Mus musculus. The conditions noted are these: route intraperitoneal.
Data set [5] relates to P388. Nature of the data set: Minimum effective dose required for antitumor activity against P-388 murine leukemia cells in mice. It counts as functional. The settings on record: Mus musculus, read-out: MED.
The subject of data set [6] is B16. Nature of the data set: Median survival time (% T/C) after ip administration of a dose of 1 mg/kg/day in B-16 melanoma in mice. The format is functional, Mus musculus. The conditions noted are these: route intraperitoneal.
In data set [7] the test system is P388. Nature of the data set: Leukopenia % change in WBC at optimal dose on 3rd day. The format is functional, Mus musculus.
Data set [8] concerns B16. Nature of the data set: Tumor free survivors on 62nd day after ip administration of a dose of 2 mg/kg/day in B-16 melanoma in mice. The format is functional, Mus musculus. The settings on record: route intraperitoneal.
For data set [9], the system named is B16. Nature of the data set: Average weight change after ip administration of a dose of 3 mg/kg/day in B-16 melanoma in mice. It counts as functional, Mus musculus. The conditions noted are these: route intraperitoneal.
Data set [10] can be described thus: E1/2 value related to the saturated calomal electrode. The format is ADME. On the set-up: unit not given here.
Data set [11] has as its system B16. Briefly: Average weight change after ip administration of a dose of 4 mg/kg/day in B-16 melanoma in mice. It counts as functional, Mus musculus. The settings on record: route intraperitoneal.
Data set [12] relates to B16. Briefly: Median survival time (% T/C) after ip administration of a dose of 6 mg/kg/day in B-16 melanoma in mice. The format is functional, Mus musculus. The settings on record: route intraperitoneal.
The test system of data set [13] is B16. Briefly: Average weight change after ip administration of a dose of 1 mg/kg/day in B-16 melanoma in mice. It counts as functional, Mus musculus. The conditions noted are these: route intraperitoneal.
Data set [14] concerns P388. Briefly: Maximum % T/C against P-388 murine leukemia cells in mice. It counts as functional, Mus musculus.
The subject of data set [15] is B16. Nature of the data set: Tumor free survivors on 62nd day after ip administration of a dose of 6 mg/kg/day in B-16 melanoma in mice; out of 10. The format is functional, Mus musculus. The conditions noted are these: route intraperitoneal.
In data set [16] the test system is B16. Nature of the data set: Median survival time (% T/C) after ip administration of a dose of 4 mg/kg/day in B-16 melanoma in mice. It counts as functional, Mus musculus. The settings on record: route intraperitoneal.
For data set [17], the system named is B16. Briefly: Tumor free survivors on 62nd day after ip administration of a dose of 3 mg/kg/day in B-16 melanoma in mice. It counts as functional, Mus musculus. The settings on record: route intraperitoneal.
Data set [18] deals with B16. Briefly: Median survival time (% T/C) after ip administration of a dose of 2 mg/kg/day in B-16 melanoma in mice. It counts as functional, Mus musculus. The settings on record: route intraperitoneal.
Data set [19] relates to B16. Nature of the data set: Average weight change after ip administration of a dose of 6 mg/kg/day in B-16 melanoma in mice. It counts as functional, Mus musculus. The settings on record: route intraperitoneal.
Data set [20] concerns P388. Briefly: Maximum % T/C with mitomycin C against P-388 murine leukemia cells in mice. The format is functional, Mus musculus.
In data set [21] the test system is B16. Briefly: Average weight change after ip administration of a dose of 2 mg/kg/day in B-16 melanoma in mice. The format is functional, Mus musculus. The settings on record: route intraperitoneal.
For data set [22], the system named is B16. Nature of the data set: Median survival time (% T/C) after ip administration of a dose of 4 mg/kg/day inB-16 melanoma in mice. The conditions noted are these: route intraperitoneal. It counts as functional, Mus musculus.
In data set [23] the test system is B16. Nature of the data set: Tumor free survivors on 62nd day after ip administration of a dose of 4 mg/kg/day in B-16 melanoma in mice. It counts as functional, Mus musculus. The conditions noted are these: route intraperitoneal.

`COC12[C@@H]3N[C@@H]3CN1C1=C(C(=O)C(N3CCN(C=O)CC3)=C(C)C1=O)[C@@H]2COC(N)=O` (stereo partly drawn) had a Dose in the data set on P388 [1] of 6.4 mg/kg. Further, the T/C (commonly the ratio of treated to control) in the data set on B16 [2] came out at 310%; in the data set on B16 [6], 210%; in the data set on B16 [12], 88%; in the data set on P388 [14] it was 294%; with B16 [16], 310%; in the data set on B16 [18] it was 275%. This molecule also returned a T/C in the data set with P388 [20] of 224%. Moreover, the Cures with B16 [3] is reported as 6; with B16 [4], 1; with B16 [8], 5; with B16 [15], 2; with B16 [17], 6. For the same molecule, the minimal effective dose in the data set with P388 [5] worked out at 0.2 mg/kg. Besides, the “Change in WBC” value in the data set on P388 [7] is 16%. In addition, the Average weight change in the data set with B16 [9] is recorded as -0.4 g; in the data set on B16 [11], -1 g; in the data set on B16 [13] it was 0 g; with B16 [19], -0.7 g; in the data set on B16 [21], -0.1 g. Moreover, in [10], the E1/2 turned out to be 0.23.
In the data set with P388 [1], `CO[C@@]12[C@H](COC(N)=O)C3=C(C(=O)C(C)=C(N)C3=O)N1C[C@@H]1N[C@@H]12` [MITOMYCIN] yielded a Dose of 3.2 mg/kg. Also, the T/C was determined as 165% in the data set with B16 [2]; 155% in the data set with B16 [6]; 200% in the data set on B16 [22]; 161% in the data set with P388 [14]; 152% with B16 [18]. Besides, the Cures in the data set on B16 [4], with B16 [8], in the data set with B16 [23] and in the data set with B16 [17] was 0 throughout. In addition, in the data set with P388 [5], the minimal effective dose came out at 0.2 mg/kg. Besides, the Change in WBC in the data set on P388 [7] was -42%. For the same molecule, the Average weight change is given as -0.1 g in the data set with B16 [9], -0.1 g with B16 [11], 0.2 g in the data set on B16 [13] and 0.5 g with B16 [21]. The E1/2 in [10] is -0.45.
